Measured values taken from US20260347353A1, “INDOLIZINE DERIVATIVES FOR TREATING CANCER” (Antares Therapeutics, Inc., priority 2022, published 2026).
pIC50, pKd: −log10 of the molar value.

How the values were obtained:
[1] = system: NUGC3 cells (p53 Y220C); test: Cell Proliferation Assay (CellTiter-Glo), NUGC3 p53 Y220C; type: cell-based; conditions: Homo sapiens, NUGC-3, 120 h, 5 days, read-out: CTG NUGC3 P53 Y220C IC50
Description: Inducible p53 Y220C and R273H constructs (Tet-One inducible expression system; Takara) were stably expressed in NCIH1299 cells by lentiviral transduction. NUGC3, A549, BxPC3, T3M4, HuH7, HCC2935, MFE296, NCIH1299, NCIH1299-inducible p53 Y220C, and NCIH1299-inducible p53 R273H cell lines were used for cell proliferation assay. 250-500 cells were seeded in each well of 384 plate and then compounds were dispensed into each well using Echo or Tecan. After 5 days of incubation, equal volume of CellTiter-Glo reagent (G7570; Promega) was added into each well and the plate was incubated at room temperature for 10 minutes with shaking. The luminescent signal was measured by PheraStar microplate reader and IC50 was calculated.

[2] = biological target: p53 Y220C (Homo sapiens, UniProt P04637, Y220C); test: Luciferase Reporter Assay, p53 Y220C (NCIH1299 cells with inducible p53 Y220C and p53 response element-luciferase); type: cell-based; conditions: 6 hour compound treatment, read-out: Luc P53 Y220C AC50
Description: Luciferase reporter (Luc) driven by p53 response element (LTV-p53-Luc (SKU #: LTLR007); G&P Biosciences) and inducible p53 Y220C construct (Tet-One inducible expression system; Takara) were stably expressed in NCIH1299 cells by lentiviral transduction. The cells were then used for p53 reporter assay. 5,000 cells were seeded in each well of 384 plate and cultured in 0.5 ug/mL doxycycline (D3072; Sigma) containing medium for 24 hours before compound treatment. After 6 hour of compound treatment, equal volume of One-Glo reagent (E6110; Promega) was added to each well and the plate was incubated for 5 minutes with shaking at room temperature. The luciferase activity was immediately measured with PheraStar microplate reader. Luciferase activity was stimulated by 10 uM of a tool compound as positive control and AC50 was calculated.

[3] = biological target: T1, p53 Y220C mutant protein (amino acid residues 94-293) (Homo sapiens, UniProt P04637, Y220C); test: Surface Plasmon Resonance (SPR) assay, p53 Y220C Kd_kinetic; conditions: multi-cycle kinetics, 16 or 20 °C, pH 7.5, 1:1 binding model
T1 construct: p53 Y220C mutant protein (amino acid residues 94-293)
T1 sequence (P04637 94-293, stated change not applied): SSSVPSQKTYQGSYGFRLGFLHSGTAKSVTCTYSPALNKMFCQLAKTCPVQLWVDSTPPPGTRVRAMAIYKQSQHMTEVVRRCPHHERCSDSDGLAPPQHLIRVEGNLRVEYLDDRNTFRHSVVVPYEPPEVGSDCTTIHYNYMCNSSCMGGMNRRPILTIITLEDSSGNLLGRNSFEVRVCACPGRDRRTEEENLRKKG
Description: SPR experiments are performed on a Biacore 8K instrument. […] Compounds are 2-fold, 7-point serial diluted; the top concentration varies depending on the potency. Compound binding affinities are measured in the multi-cycle kinetics mode, at 30 μL/min flow rate with 60 seconds association time and 120 seconds dissociation time. The running buffer contains 50 mM Tris, pH 7.5, 100 mM NaCl, 1 mM DTT, 0.01% Brij35, 0.05% Tween-20 and 1% DMSO. The assay temperature is maintained at 16 or 20 °C and data are fit into the 1:1 binding model using the Biacore Insight Evaluation software.

| Compound | pIC50 [1] | AC50 [2] | pKd [3] |
| --- | --- | --- | --- |
| CN1CC[C@@H](Nc2cccn3c(SC(F)(F)F)c(-c4noc(CNC(=O)c5cnn[nH]5)n4)cc23)[C@@H](F)C1 [Example 80] | 5.52 to 5.82 | 1.5 to 3 µM | > 8.00 |
| CNC(=O)c1coc(NCc2nc(-c3cc4c(N[C@@H]5CCN(C)C[C@@H]5F)cccn4c3SC(F)(F)F)no2)n1 [Example 81] | 5.82 to 6.12 | < 0.75 µM | > 8.00 |
| CN1CC[C@@H](Nc2cccn3c(SC(F)(F)F)c(-c4noc(CNC(=O)c5nnc(N(C)C)s5)n4)cc23)[C@@H](F)C1 [Example 82] | > 6.12 | < 0.75 µM | > 8.00 |
| CN1CC[C@@H](Nc2cccn3c(SC(F)(F)F)c(-c4noc(CNC(=O)c5nnc[nH]5)n4)cc23)[C@@H](F)C1 [Example 83] | 5.82 to 6.12 |  |  |
| CN1CC[C@@H](Nc2cccn3c(SC(F)(F)F)c(-c4cnc(CNC(=O)C5CC5)o4)cc23)[C@@H](F)C1 [Example 84] | ≤ 5.52 | ≥ 3 µM | 7.00 to 8.00 |
| CN1CC[C@@H](Nc2cccn3c(SC(F)(F)F)c(-c4noc(CNC(=O)c5cnn(C)c5)n4)cc23)[C@@H](F)C1 [Example 85] | > 6.12 | < 0.75 µM | > 8.00 |
| CN1CC[C@@H](Nc2cccn3c(SC(F)(F)F)c(-c4noc(CNC(=O)c5ccn(C)c5)n4)cc23)[C@@H](F)C1 [Example 86] |  | < 0.75 µM | > 8.00 |
| CN1CC[C@@H](Nc2cccn3c(SC(F)(F)F)c(-c4cc(CNC(=O)C5CC5)no4)cc23)[C@@H](F)C1 [Example 87] |  | 0.75 to 1.5 µM | > 8.00 |
| CN1CC[C@@H](Nc2cccn3c(SC(F)(F)F)c(-c4cc(CNC(=O)c5cnn(C(C)(C)C)c5)on4)cc23)[C@@H](F)C1 [Example 88] |  | < 0.75 µM | 7.00 to 8.00 |
| CN1CC[C@@H](Nc2cccn3c(SC(F)(F)F)c(-c4cc(CNC(=O)c5cnc(N(C)C)o5)no4)cc23)[C@@H](F)C1 [Example 90] |  | < 0.75 µM | > 8.00 |
| CN1CC[C@@H](Nc2cccn3c(SC(F)(F)F)c(-c4noc(CNC(=O)c5noc(N(C)C)n5)n4)cc23)[C@@H](F)C1 [Example 91] |  | < 0.75 µM | > 8.00 |
| CN1CC[C@@H](Nc2cccn3c(SC(F)(F)F)c(-c4cc(CNC(=O)c5cnc(N(C)C)s5)no4)cc23)[C@@H](F)C1 [Example 92] |  | < 0.75 µM | > 8.00 |
| CN1CC[C@@H](Nc2cccn3c(SC(F)(F)F)c(-c4noc(CNC(=O)c5ccn(CC(C)(C)O)c5)n4)cc23)[C@@H](F)C1 [Example 95] |  | < 0.75 µM | > 8.00 |
| CN1CC[C@@H](Nc2cccn3c(SC(F)(F)F)c(-c4noc(CNC(=O)c5ccn(CCF)c5)n4)cc23)[C@@H](F)C1 [Example 96] |  | < 0.75 µM | > 8.00 |
| COCC1(n2ccc(C(=O)NCc3nc(-c4cc5c(N[C@@H]6CCN(C)C[C@@H]6F)cccn5c4SC(F)(F)F)no3)c2)CC1 [Example 97] |  | < 0.75 µM | > 8.00 |
